Values of other authors as cited in patent publication US20250345512A1, “COMBINATION SODIUM-GLUCOSE COTRANSPORTER INHIBITOR (SGLTI) INSULIN THERAPY FOR GLYCEMIC CONTROL IN TYPE 1 DIABETES” (University of Virginia Patent Foundation, priority 2022, published 2025).

What was measured:
T1D = details: versus placebo over 18 weeks; cited from earlier work
T1D adults = details: pooled analysis of 1575 T1D adults; cited from earlier work
T1D patients [1] = details: 200 mg and 400 mg; adults with T1D; cited from earlier work
T1D patients [2] = test system: T1D patients; design: adverse effects, including DKA: reference not given here; details: cited from earlier work
[3] = 25 mg/day added to experimental AID; 9-14 h outpatient; cited from earlier work

Cc1ccc([C@@H]2O[C@H](CO)[C@@H](O)[C@H](O)[C@H]2O)cc1Cc1ccc(-c2ccc(F)cc2)s1 [canagliflozin]
indices of glycemic variability and treatment satisfaction (T1D): improved indices of glycemic variability and improvement in treatment satisfaction

CCOc1ccc(Cc2cc([C@@H]3O[C@H](SC)[C@@H](O)[C@H](O)[C@H]3O)ccc2Cl)cc1 [sotagliflozin]
short- and long-term renal hemodynamic changes (T1D adults): reductions in urine albumin:creatinine
glycemic control and weight (T1D patients [1]): improved glycemic control and weight

OC[C@H]1O[C@@H](c2ccc(Cl)c(Cc3ccc(O[C@H]4CCOC4)cc3)c2)[C@H](O)[C@@H](O)[C@@H]1O [empagliflozin]
adverse effects (T1D patients [2]; 2.5 mg): indistinguishable from placebo
adverse effects, including DKA (T1D patients [2]; 10 mg and 25 mg daily dose): two to three fold higher
body weight, systolic blood pressure, and diastolic blood pressure (T1D patients [2]; 1707 T1D patients, 26 weeks of SGLT2i treatment): significant reductions
hemoglobin A1c and hypoglycemia (T1D patients [2]; EASE trials): improvements in hemoglobin Ale without increase in hypoglycemia
need for pre-meal carbohydrate counting [3]: reduce the need for pre-meal carbohydrate counting
